Laboratory results as given in US20060069132A1, “Azolecarboxamide herbicides” (priority 2004, published 2006).

Legend:
barnyardgrass = assay: Test A pre-/postemergence herbicide test; assay type: in vivo, Echinochloa crus-galli
How it was run: (§1)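 Visual injury rating on a 0–100 scale (0 no effect, 100 complete control) versus untreated controls, about ten days after treatment in greenhouse. Pre: directed soil spray onto seeded sandy loam. Post: spray to runoff on plants 2–10 cm tall at one- to two-leaf stage.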

large crabgrass [1] = assay: Test A pre-/postemergence herbicide test; assay type: in vivo, Digitaria sanguinalis
How it was run: as §1

velvetleaf = assay: Test A pre-/postemergence herbicide test; assay type: in vivo, Abutilon theophrasti
How it was run: as §1

bermudagrass = assay: Test C pre-/postemergence herbicide test; assay type: in vivo, Cynodon dactylon
How it was run: (§2)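 Pre- and postemergence application, solvent/surfactant formulation; post at 1- to 4-leaf stage (2–18 cm). Greenhouse 12–14 d. Visual rating vs controls, 0 = no effect, 100 = complete control.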

Surinam grass = assay: Test C pre-/postemergence herbicide test; assay type: in vivo, Urochloa decumbens; details: for Surinam Grass plant response rating: 500 g ai/ha
How it was run: as §2

cocklebur = assay: Test C pre-/postemergence herbicide test; assay type: in vivo, Xanthium strumarium; details: for Cocklebur plant response rating: 500 g ai/ha
How it was run: as §2

corn = assay: Test C pre-/postemergence herbicide test; assay type: in vivo, Zea mays; details: for Corn plant response rating: 500 g ai/ha
How it was run: as §2

large crabgrass [2] = assay: Test C pre-/postemergence herbicide test; assay type: in vivo, Digitaria sanguinalis; details: for Crabgrass, Large plant response rating: 500 g ai/ha
How it was run: as §2

giant foxtail = assay: Test C pre-/postemergence herbicide test; assay type: in vivo, Setaria faberi; details: for Foxtail, Giant plant response rating: 500 g ai/ha
How it was run: as §2

goosegrass = assay: Test C pre-/postemergence herbicide test; assay type: in vivo, Eleusine indica; details: for Goosegrass plant response rating: 500 g ai/ha
How it was run: as §2

kochia = assay: Test C pre-/postemergence herbicide test; assay type: in vivo, Kochia scoparia
How it was run: as §2

[3] = test system: common (oilseed) sunflower; assay: Test C pre-/postemergence herbicide test; assay type: in vivo, Helianthus annuus
How it was run: as §2

[4] = Postemergence, 500 g ai/ha, 0 to 100 scale, 0 no effect, 100 complete control
[5] = Postemergence, 2000 g ai/ha, 0 to 100 scale, 0 no effect, 100 complete control
[6] = Preemergence, 500 g ai/ha, visual rating, 0 to 100 scale (0 no effect, 100 complete control)
[7] = Preemergence, 2000 g ai/ha, visual rating, 0 to 100 scale (0 no effect, 100 complete control)
[8] = 125 g ai/ha, scale 0 (no effect) to 100 (complete control), visual, 12 to 14 days, preemergence
[9] = 250 g ai/ha, scale 0 to 100 (0 no effect, 100 complete control), visual, 12 to 14 days, preemergence
[10] = Postemergence, 250 g ai/ha, scale 0 to 100, 0 no effect, 100 complete control
[11] = Preemergence, 500 g ai/ha, scale 0 to 100, 0 no effect, 100 complete control
[12] = Preemergence, scale 0 to 100, 0 no effect, 100 complete control
[13] = postemergence, 125 g ai/ha, scale 0 to 100
[14] = postemergence, 62 g ai/ha, scale 0 to 100

Structure (SMILES): CCn1nc(C(C)(C)C)cc1C(=O)Nc1cccc(C(=O)NC2CC2)n1 [Compound 146]
- Barnyardgrass plant response rating (barnyardgrass; [4]): 50
- Plant response rating, Barnyardgrass (barnyardgrass; [5]): 75
- Barnyardgrass plant response rating (barnyardgrass; [6]): 70
- Barnyardgrass plant response rating (barnyardgrass; [7]): 80
- Crabgrass, Large plant response rating (large crabgrass [1]; [4]): 15
- Plant response rating, Crabgrass, Large (large crabgrass [1]; [5]): 55
- Crabgrass, Large plant response rating (large crabgrass [1]; [6]): 70
- Crabgrass, Large plant response rating (large crabgrass [1]; [7]): 80
- Velvetleaf plant response rating (velvetleaf; [4]): 20
- Plant response rating, Velvetleaf (velvetleaf; [5]): 35
- Velvetleaf plant response rating (velvetleaf; [7]): 25
- Velvetleaf plant response rating (velvetleaf; preemergence, 500 g ai/ha, visual injury, 0 to 100 scale (0 no effect, 100 complete control)): 20
- Plant response rating (0 = no effect, 100 = complete control), Bermudagrass (bermudagrass; 62 g ai/ha, preemergence): 10
- Plant response rating, Bermudagrass (bermudagrass; [8]): 60
- Plant response rating, Bermudagrass (bermudagrass; [9]): 70
- Plant response rating, Bermudagrass (bermudagrass; [10]): 0
- Bermudagrass plant response rating (bermudagrass; [11]): 90
- Plant response rating (0 = no effect, 100 = complete control), Surinam Grass (Surinam grass; 62 g ai/ha, preemergence): 0
- Plant response rating, Surinam Grass (Surinam grass; [8]): 0
- Surinam Grass plant response rating (Surinam grass; Postemergence, scale 0 to 100): 20
- Plant response rating, Surinam Grass (Surinam grass; [10]): 0
- Surinam Grass plant response rating (Surinam grass; [12]): 50
- Plant response rating, Surinam Grass (Surinam grass; [13]): 0
- Plant response rating, Surinam Grass (Surinam grass; [14]): 0
- Plant response rating (0 = no effect, 100 = complete control), Cocklebur (cocklebur; 62 g ai/ha, preemergence): 0
- Plant response rating, Cocklebur (cocklebur; [8]): 0
- Plant response rating, Cocklebur (cocklebur; [9]): 0
- Cocklebur plant response rating (cocklebur; Postemergence, scale 0 to 100): 20
- Plant response rating, Cocklebur (cocklebur; [10]): 10
- Cocklebur plant response rating (cocklebur; [12]): 0
- Plant response rating, Cocklebur (cocklebur; [13]): 5
- Plant response rating, Cocklebur (cocklebur; [14]): 5
- Plant response rating (0 = no effect, 100 = complete control), Corn (corn; 62 g ai/ha, preemergence): 0
- Plant response rating, Corn (corn; [8]): 0
- Plant response rating, Corn (corn; [9]): 10
- Corn plant response rating (corn; Postemergence, scale 0 to 100): 30
- Plant response rating, Corn (corn; [10]): 10
- Corn plant response rating (corn; [12]): 30
- Plant response rating, Corn (corn; [13]): 5
- Plant response rating, Corn (corn; [14]): 5
- Plant response rating (0 = no effect, 100 = complete control), Crabgrass, Large (large crabgrass [2]; 62 g ai/ha, preemergence): 20
- Crabgrass, Large plant response rating (large crabgrass [2]; Postemergence, scale 0 to 100): 85
- Plant response rating, Crabgrass, Large (large crabgrass [2]; [10]): 50
- Crabgrass, Large plant response rating (large crabgrass [2]; [12]): 70
- Plant response rating, Crabgrass, Large (large crabgrass [2]; [13]): 0
- Plant response rating, Crabgrass, Large (large crabgrass [2]; [14]): 0
- Plant response rating (0 = no effect, 100 = complete control), Foxtail, Giant (giant foxtail; 62 g ai/ha, preemergence): 0
- Plant response rating, Foxtail, Giant (giant foxtail; [8]): 10
- Plant response rating, Foxtail, Giant (giant foxtail; [9]): 60
- Foxtail, Giant plant response rating (giant foxtail; Postemergence, scale 0 to 100): 10
- Plant response rating, Foxtail, Giant (giant foxtail; [10]): 0
- Foxtail, Giant plant response rating (giant foxtail; [12]): 80
- Plant response rating, Foxtail, Giant (giant foxtail; [13]): 0
- Plant response rating, Foxtail, Giant (giant foxtail; [14]): 0
- Plant response rating (0 = no effect, 100 = complete control), Goosegrass (goosegrass; 62 g ai/ha, preemergence): 0
- Plant response rating, Goosegrass (goosegrass; [8]): 0
- Goosegrass plant response rating (goosegrass; Postemergence, scale 0 to 100): 0
- Plant response rating, Goosegrass (goosegrass; [10]): 0
- Goosegrass plant response rating (goosegrass; [12]): 60
- Plant response rating, Goosegrass (goosegrass; [13]): 0
- Plant response rating, Goosegrass (goosegrass; [14]): 0
- Plant response rating (0 = no effect, 100 = complete control), Kochia (kochia; 62 g ai/ha, preemergence): 50
- Plant response rating, Kochia (kochia; [8]): 50
- Plant response rating, Kochia (kochia; [10]): 20
- Kochia plant response rating (kochia; [11]): 100
- Plant response rating, Kochia (kochia; [14]): 5
- Plant response rating (0 = no effect, 100 = complete control), Sunflower ([3]; 62 g ai/ha, preemergence): 0
- Plant response rating, Sunflower [3, 8]: 0
- Sunflower plant response rating [3, 11]: 0
